Here are results for 19 compounds from patent publication US5623080A, “Fluorone and pyronin Y derivatives” (Spectra Group Limited, Inc., priority 1995, dated 1997).

Data set [1] in a line: absorption wavelength (λmax) and extinction (ε). Format: physicochemical. The following applies: for λmax in EtOH (first value) / ε (first value) / λmax in EtOH / ε: Table 1, EtOH; for ε (first value): at first λmax, in M-1cm-1 (unit assumed); for ε: at second λmax; for absorption wavelength: comparison.
The nature of data set [2]: double bond conversion (C=C% Conversion) by FTIR. The following applies: (1:2:3), DIDMA, 30 sec. The protocol: To a resin formulation consisting of 15 parts urethane diacrylate, 15 parts DPHPA, 20 parts TPGDA and 40 parts TMPTA was added DIDMA, initiator and (4-octyloxyphenyl)phenyliodonium hexafluoroantimonate (OPPI). The samples were coated to a thickness of 15 microns and exposed to a 75 W tungsten halogen dental lamp (focused through an optical fiber) at a distance of 0.75 inch at which the Light intensity was about 0.40 W/cm^2. The molar ratios are indicative of the amounts of fluorone to onium salt to amine coinitiator. The double bond conversion was determined by FTIR spectroscopy. The pencil hardness of a given test sample is measured by holding a pencil at a 45° angle to the sample and drawing across it towards the person testing it. Using the pencils in an order from softest to hardest, the first pencil that scratches the surface is assigned as the pencil hardness of the sample. The pencil hardness scale is as follows from softest to hardest: 4B, 3B, 2B, B, HB, H, 2H, 3H, 4H, 6H. For instance, if a 2H pencil is the first pencil to scratch the surface then the pencil hardness is 2H.

A short description of a further data set: depth of cure. The conditions noted are these: other fluorone dyes. The source says: One of the advantages of the fluorone dye photoinitiators in this invention is the depth of the cure that is obtainable. This is in contrast to UV photoinitators that causes a "screening" effect which prevents the UV light from penetrating beyond a certain […] depth, usually several millimeters. By contrast, the fluorone dye bleaches as it photoinitiates and is concommitantly converted into a non-visible absorbing species thus allowing more visible light to penetrate which continues the cure. This cascading bleaching effect permits substantial depth of cure which can easily reach several inches.
An acrylate monomer mixture was composed of 15 parts urethane diacrylate, 20 parts TPGPA, 40 parts TMPTA and 15 parts DPHPA, and a 20 to 1 weight ratio of NPG coinitiator to DIEF or DIBF fluorone dye. For dye concentrations of 0.01, 0.05 and 0.1 weight, all the formulations cured to a depth of 3 cm in 30 seconds when exposed to a 350 watt tungsten halogen light which provides about 500 mw/cm^2 irradiance. When the irradiance was increased to about 2 watts/cm^2 cure speed was shortened to 5 seconds for the same depth.
An acrylate mixture was composed of 60% urethane diacrylate, 30% DPHPA, 10% BDDA, and 0.05 weight % of DIEF or DIBF fluorone dye with 2 weight % of DIDMA. The formulation cure to a depth greater than 1 cm in 10 seconds when exposed to a 75 watt tungsten halogen lamp which provided an irradiance of about 260 mw/cm^2.
An acrylate mixture was composed of 33% TMPTA, 33% DPHPA, 33% Epoxy acrylate, and 2% of DIDMA with either 0.01, 0.05 or 0.1 weight % of DIEF. All samples cured to a depth greater than 1 cm in 10 seconds when exposed to a 75 watt tungsten halogen.
An acrylate mixture was composed of 70% urethane diacrylate, 5% DPHPA, 25% BDDA, and 2% DIDMA with either 0.01, 0.03 or 0.1 weight % DIEF. The 0.01 and 0.03 samples cured after 2 passes through a 300 watt per inch medium pressure mercury arc lamp at a speed of 50 feet/minute to a depth greater than 3 mm. The 0.1 sample cured to a depth of greater than 1.5 mm.

Turning to 5,7-diiodo-3-methoxy-6-fluorone [DIMF], in data set [1], the “λmax in EtOH (first value)” value is given as 470 and the “ε (first value)” value was 23,500.

Take `CCCCOc1ccc2c(C#N)c3cc(I)c(=O)c(I)c-3oc2c1` [Compound 7, 9-cyano-5,7-diiodo-3-butoxy-6-fluoorone]: in data set [1], the “λmax in EtOH (first value)” value came to 600.

With `N#Cc1c2cc(Br)c(=O)c(Br)c-2oc2c(Br)c(O)c(Br)cc12` [Compound 14, 9-cyano-3-hydroxy-2,4,5,7-tetrabromo-6-fluorone], in data set [1], the “λmax in EtOH” value came out at 576, the “λmax in EtOH (first value)” value is given as 626, the “ε (first value)” value turned out to be 51400 and the ε amounted to 24500 M⁻¹ cm⁻¹.

As for `CCCCCCCCc1cc2c(C#N)c3cc(I)c(=O)c(I)c-3oc2c(I)c1O` [Compound 20, 9-cyano-3-hydroxy-4,5,7-triiodo-2-octyl-6-fluorone], in data set [1], the “λmax in EtOH (first value)” value is recorded as 630, the “ε (first value)” value is 40,000 and the absorption wavelength is listed as 630 nm. Further, the λmax in data set [1] (in EtOH) is on record as 630 nm.

As to `CC(C)(C)c1cc2cc3cc(C(C)(C)C)c(=O)c(I)c-3oc2c(I)c1O` [Compound 26, 2,7-di-t-butyl-4,5-diiodo-3-hydroxy-6-fluorone], in data set [1], the “λmax in EtOH (first value)” value worked out at 532 and the “ε (first value)” value is listed as 90800.

In the case of `CC(C)(C)c1cc2c(C#N)c3cc(C(C)(C)C)c(=O)c(I)c-3oc2c(I)c1O` [Compound 27, 9-cyano-2,7-di-t-butyl-4,5-diiodo-3-hydroxy-6-fluorone], in data set [1], the “λmax in EtOH” value was 582, the “λmax in EtOH (first value)” value is 636, the “ε (first value)” value came out at 68300 and the ε worked out at 33600 M⁻¹ cm⁻¹.

For the compound `O=c1ccc2cc3ccc(O)cc3sc-2c1` [Compound 29, 3-hydroxy-6-thiafluorone], the “λmax in EtOH (first value)” value in data set [1] was determined as 524.

With `CC(C)(C)c1cc2cc3cc(C(C)(C)C)c(=O)cc-3oc2cc1O` [Compound 30, 2,7-di-t-butyl-3-hydroxy-6-fluorone], in data set [1], the “λmax in EtOH (first value)” value is 518 and the “ε (first value)” value is reported as 101000.

For the compound `CC(C)(C)c1cc2c(C#N)c3cc(C(C)(C)C)c(=O)cc-3oc2cc1O` [Compound 31, 9-cyano-2,7-di-t-butyl-3-hydroxy-6-fluorone], in data set [1], the “λmax in EtOH” value is on record as 564, the “λmax in EtOH (first value)” value came to 614, the “ε (first value)” value turned out to be 47400 and the ε stood at 23200 M⁻¹ cm⁻¹.

`O=C(O)CCCc1cc2cc3ccc(O)cc3oc-2cc1=O` [Compound 37a, 3-hydroxy-7-butyric acid-6-fluorone]: in data set [1], the “λmax in EtOH (first value)” value was determined as 512.

For the compound `N#Cc1c2ccc(=O)cc-2oc2cc(O)c(CCCC(=O)O)cc12` [Compound 37b, 9-cyano-3-hydroxy-7-butyric acid-6-fluorone], in data set [1], the “λmax in EtOH (first value)” value worked out at 596 and the “ε (first value)” value is reported as 74,000.

Regarding `CCCCCCCCOc1ccc2cc3cc(I)c(=O)c(I)c-3oc2c1` [DIOF, 5,7-diiodo-3-octoxy-6-fluorone], in data set [1], the “λmax in EtOH (first value)” value was determined as 470. For the same compound, in data set [1], the “ε (first value)” value is reported as 31,600. In addition, the “C=C% Conversion” value in data set [2] (0.05 wt %) and in data set [2] (0.15 wt %) was 40% in each case.

For `Cc1ccc(-n2c3cc(=N)ccc-3cc3ccc(N)cc32)cc1` [N.phi.CH3 NH2 /NH2 + H H H H H], in data set [1], the “λmax in EtOH (first value)” value stood at 472.

With `C=CC(=O)OCCCCCCOc1ccc2cc3cc(I)c(=O)c(I)c-3oc2c1` [O O/O(CH2)6 OCOCH=CH2 H I H I H], the “λmax in EtOH (first value)” value in data set [1] stood at 472.

Turning to `N#Cc1c2ccc(=O)cc-2oc2cc(O)ccc12` [O O/O^- CN H H H H, 9-Cyano-3-hydroxy-6-fluorone], in data set [1], the “λmax in EtOH” value is listed as 548, the “λmax in EtOH (first value)” value is 594, the “ε (first value)” value was found to be 50300 and the ε was 24700 M⁻¹ cm⁻¹.

As to `CCOC(=O)CCCc1cc2cc3ccc(=O)cc-3oc2cc1O` [O O/O^- H H H H (CH2)3 COOEt], the “λmax in EtOH (first value)” value in data set [1] turned out to be 510.

As for `CCCCCCCCc1cc2cc3cc(I)c(=O)c(I)c-3oc2c(I)c1O` [O O/O^- H I H I (CH2)7 CH3, 3-hydroxy-4,5,7-triiodo-2-octyl-6-fluorone], in data set [1], the “λmax in EtOH (first value)” value was 534 and the “ε (first value)” value is 92,600.

With `N#Cc1c2ccc(=O)cc-2sc2cc(O)ccc12` [S O/O^- CN H H H H], the “λmax in EtOH (first value)” value in data set [1] is given as 610.

With `N#Cc1c2cc(I)c(=O)c(I)c-2oc2c(I)c(O)c(I)cc12` [TIHCF, 9-cyano-3-hydroxy-2,4,5,7-tetraiodo-6-fluorone], in data set [1], the “λmax in EtOH” value is on record as 586, the “λmax in EtOH (first value)” value is 638, the “ε (first value)” value is listed as 80000 and the ε was 35000 M⁻¹ cm⁻¹. In data set [1], this compound had an absorption wavelength of 636 nm. The λmax in data set [1] (ethanol, synthesis example) was determined as 638 nm. The “depth of cure results” value in “depth of cure” is “have also been observed”.
